Reference: ChEMBL document CHEMBL6078646, “Target Ligand Separation and Identification of Isoforsythiaside as a Histone Lysine-Specific Demethylase 1 Covalent Inhibitor Against Breast Cancer Metastasis” (J Med Chem, 2024)
Calls of active or inactive are those of the source. The rule behind the calls is not given here.

Tests used:
[1] = Toxicity in female Balb/c mouse assessed as histological changes in heart at 50 mg/kg, ip administered every other day for 7 times by H and E staining based analysis; format: organism-based; conditions: in vivo
[2] = Cytotoxicity against human MCF-10A cells assessed as cell viability at 0 to 100 uM incubated for 24 hrs by MTT assay; format: toxicity, cell-based; conditions: dose 0-100 µM, read-out: Activity
MDA-MB-231 [3] = test: Effect on E-cadherin protein expression in LSD1 knockout human MDA-MB-231 cells at 16 uM by Western blot analysis; format: functional, cell-based
[4] = Toxicity in female Balb/c mouse assessed as histological changes in kidney at 50 mg/kg, ip administered every other day for 7 times by H and E staining based analysis; format: organism-based; conditions: in vivo
[5] = target: Lysine-specific histone demethylase 1A (Homo sapiens, UniProt O60341); test: Binding affinity to LSD1 (unknown origin) assessed as dissociation constant by Microscale thermophoresis assay
[6] = Toxicity in female Balb/c mouse assessed as effect on WBC level at 50 mg/kg, ip administered every other day for 7 times; format: organism-based; conditions: in vivo
MDA-MB-231 [7] = test: Upregulation of H3K4me1 protein expression in human MDA-MB-231 cells by Western blot analysis; format: functional, cell-based; conditions: dose 4-32 µM
[8] = Toxicity in female Balb/c mouse assessed as histological changes in spleen at 50 mg/kg, ip administered every other day for 7 times by H and E staining based analysis; format: organism-based; conditions: in vivo
MCF7 = test: Cytotoxicity against human MCF7 cells assessed as cell viability at 0 to 100 uM incubated for 24 hrs by MTT assay; format: functional; conditions: dose 0-100 µM

C[C@@H]1O[C@H](OC[C@H]2O[C@@H](OCCc3ccc(O)c(O)c3)[C@H](O)[C@@H](OC(=O)/C=C/c3ccc(O)c(O)c3)[C@@H]2O)[C@H](O)[C@H](O)[C@H]1O
Activity [1]: Non-toxic | viability at 24 h, up to 100 µM [2]: > 90% | Activity (MDA-MB-231 [3]): inactive | Activity [4]: Non-toxic | Kd [5]: 5.19 µM | Activity [6]: Non-toxic | Activity (MDA-MB-231 [7]): Dose-dependent-effect | Activity [8]: Non-toxic | Activity (MCF7): >90%
